Test results published in ChEMBL document CHEMBL5126653, “Targeted Degradation of Androgen Receptor for the Potential Treatment of Prostate Cancer” (ACS Med Chem Lett, 2022).

Target: Protein cereblon/Androgen receptor (Homo sapiens) (UniProt P10275+Q96SW2)
Experiment: In vivo protac activity at CRBN/AR in human VCaP cells xenografted in CB17 mouse assessed as increase in Androgen receptor degradation at 10 mg/kg, po for 16 hrs by ELISA
Type: functional, organism-based

Protein cereblon/Androgen receptor (Homo sapiens), sequence (P10275 whole entry, looked up): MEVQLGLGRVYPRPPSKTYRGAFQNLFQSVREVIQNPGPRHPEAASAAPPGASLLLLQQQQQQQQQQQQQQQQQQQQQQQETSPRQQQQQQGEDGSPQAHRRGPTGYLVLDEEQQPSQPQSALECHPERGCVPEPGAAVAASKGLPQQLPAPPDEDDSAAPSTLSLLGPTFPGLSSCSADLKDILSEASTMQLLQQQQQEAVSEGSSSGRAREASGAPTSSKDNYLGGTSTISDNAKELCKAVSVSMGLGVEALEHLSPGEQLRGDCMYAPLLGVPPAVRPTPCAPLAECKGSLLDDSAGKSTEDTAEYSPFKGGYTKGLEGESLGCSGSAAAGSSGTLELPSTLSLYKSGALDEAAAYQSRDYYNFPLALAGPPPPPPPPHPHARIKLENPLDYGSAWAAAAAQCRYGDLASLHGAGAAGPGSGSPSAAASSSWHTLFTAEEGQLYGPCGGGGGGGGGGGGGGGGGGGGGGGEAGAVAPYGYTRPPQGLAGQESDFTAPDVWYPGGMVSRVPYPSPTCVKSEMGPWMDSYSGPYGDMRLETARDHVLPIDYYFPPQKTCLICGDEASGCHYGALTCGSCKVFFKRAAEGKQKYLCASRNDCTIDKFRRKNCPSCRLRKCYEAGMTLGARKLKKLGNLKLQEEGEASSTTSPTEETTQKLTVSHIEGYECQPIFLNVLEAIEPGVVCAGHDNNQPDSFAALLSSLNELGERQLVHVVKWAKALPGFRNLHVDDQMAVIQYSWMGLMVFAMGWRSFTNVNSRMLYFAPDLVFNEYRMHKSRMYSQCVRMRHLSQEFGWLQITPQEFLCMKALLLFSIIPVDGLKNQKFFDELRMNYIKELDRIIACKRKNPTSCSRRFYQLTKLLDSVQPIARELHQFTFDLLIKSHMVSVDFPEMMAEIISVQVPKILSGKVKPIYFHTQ
Protein cereblon/Androgen receptor (Homo sapiens), sequence (Q96SW2 whole entry, looked up): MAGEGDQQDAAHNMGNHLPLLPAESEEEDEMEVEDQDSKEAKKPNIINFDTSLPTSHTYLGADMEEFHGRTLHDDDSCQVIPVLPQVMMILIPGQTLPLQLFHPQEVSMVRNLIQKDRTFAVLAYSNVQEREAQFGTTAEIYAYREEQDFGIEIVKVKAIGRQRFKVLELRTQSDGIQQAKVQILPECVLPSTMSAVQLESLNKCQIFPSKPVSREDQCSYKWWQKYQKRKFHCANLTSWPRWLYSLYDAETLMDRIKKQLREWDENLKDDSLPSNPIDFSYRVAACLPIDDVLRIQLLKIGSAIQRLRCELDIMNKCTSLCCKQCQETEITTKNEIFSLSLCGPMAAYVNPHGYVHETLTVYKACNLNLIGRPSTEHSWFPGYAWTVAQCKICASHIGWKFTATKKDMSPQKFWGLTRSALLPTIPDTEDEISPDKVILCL

SMILES	Activity
CC1(C)[C@H](NC(=O)c2ccc(N3CCN(CCCCCOc4ccc5c(c4)C(=O)N(C4CCC(=O)NC4=O)C5=O)CC3)nc2)C(C)(C)[C@H]1Oc1ccc(C#N)c(Cl)c1 (stereo not given in full)	< 1%
CC1(C)[C@H](NC(=O)c2ncc(N3CCN(CCCCCOc4ccc5c(c4)C(=O)N(C4CCC(=O)NC4=O)C5=O)CC3)cn2)C(C)(C)[C@H]1Oc1ccc(C#N)c(Cl)c1 (stereo not given in full)	1%
CC1(C)[C@H](NC(=O)c2ccc(CCCCN3CCN(c4ccc5c(c4)C(=O)N(C4CCC(=O)NC4=O)C5=O)CC3)nc2)C(C)(C)[C@H]1Oc1ccc(C#N)c(Cl)c1 (stereo not given in full)	10%
CC1(C)[C@H](NC(=O)c2cnc(N3CCC(CN4CCN(c5ccc6c(c5)C(=O)N(C5CCC(=O)NC5=O)C6=O)CC4)CC3)nc2)C(C)(C)[C@H]1Oc1ccc(C#N)c(Cl)c1 (stereo not given in full)	< 1%
CC1(C)[C@H](NC(=O)c2cnc(N3CCN(CCCCCOc4ccc5c(c4)C(=O)N(C4CCC(=O)NC4=O)C5=O)CC3)nc2)C(C)(C)[C@H]1Oc1ccc(C#N)c(Cl)c1 (stereo not given in full)	< 1%

Next, values leading:

Activity	SMILES
1%	CC1(C)[C@H](NC(=O)c2ccc(C3CCC(CN4CCN(c5ccc6c(c5)C(=O)N(C5CCC(=O)NC5=O)C6=O)CC4)CC3)cc2)C(C)(C)[C@H]1Oc1ccc(C#N)c(Cl)c1 (stereo not given in full)
1%	CC1(C)[C@H](NC(=O)c2ccc(N3CCN(CC4CCN(c5ccc6c(c5)C(=O)N(C5CCC(=O)NC5=O)C6=O)CC4)CC3)cc2)C(C)(C)[C@H]1Oc1ccc(C#N)c(Cl)c1 (stereo not given in full)
< 1%	CC1(C)[C@H](NC(=O)c2ccc(N3CCN(CCCOc4ccc5c(c4)C(=O)N(C4CCC(=O)NC4=O)C5=O)CC3)cc2)C(C)(C)[C@H]1Oc1ccc(C#N)c(Cl)c1 (stereo not given in full)
< 1%	CC1(C)[C@H](NC(=O)c2ccc(N3CCC(CN4CCN(c5ccc6c(c5)C(=O)N(C5CCC(=O)NC5=O)C6=O)CC4)CC3)nc2)C(C)(C)[C@H]1Oc1ccc(C#N)c(Cl)c1 (stereo not given in full)
< 1%	CC1(C)[C@H](NC(=O)c2ccc(N3CCN(CC4CN(c5ccc6c(c5)C(=O)N(C5CCC(=O)NC5=O)C6=O)C4)CC3)cc2)C(C)(C)[C@H]1Oc1ccc(C#N)c(Cl)c1 (stereo not given in full)
